Experimental findings from patent US20240335462A1, “SULFUR/PHOSPHORUS-CONTAINING ARYL COMPOUND AND APPLICATION THEREOF” (MEDSHINE DISCOVERY INC., priority 2021, published 2024) are described below.

In assay [1] the test system is TYK2 signaling pathway (IFN-α/pSTAT1). Description: IFN-α-induced STAT1 phosphorylation in mouse whole blood. The format is cell-based. Conditions: CD3+ cells. Here is the method:
The purpose of this experiment was to detect the inhibitory effect of the compound on the JAK-STAT signaling pathway activated by IFN-α in mouse whole blood. Fresh mouse whole blood was collected and placed in a 96-well plate. The test compound was added and incubated for 1 hour, followed by stimulation with IFN-α. The corresponding STAT1 phosphorylation level in the CD3^+ cell population was analyzed using flow cytometer by means of surface antibody staining and intracellular phosphorylated antibody staining. The IFN-α-induced STAT1 phosphorylation in mouse whole blood is dependent on TYK2 activity. By detecting the inhibitory activity of the compound on downstream […] phosphorylation, the half maximal inhibitory concentration (IC50) of the compound on TYK2 signaling pathway activity can be determined.
• a) The compound was prepared into a 10 mM solution with dimethyl sulfoxide (DMSO), and diluted in DMSO to a solution with various concentrations, 500 times the final concentration. • b) 5 μL of the diluted compound was transferred to 120 μL of phosphate buffered saline (PBS) containing 0.1% bovine serum albumin (BSA). • c) Positive and negative control groups were set up, with both finally containing 0.2% DMSO.
• a) 67.5 μL of mouse whole blood was added to each well of a 96-well cell culture plate. • b) 3.5 μL of the diluted compound was added thereto and mixed thoroughly. • c) The plate was incubated in a 37° C. incubator for 60 minutes. • d) Mouse interferon recombinant protein was diluted 125-fold in PBS containing 0.1% BSA, and anti-mouse CD3 antibody was diluted 5-fold in PBS containing 0.1% BSA. 5 μL of diluted anti-mouse CD3 antibody and 4 μL of diluted mouse interferon recombinant protein were added to each well. • e) The plate was incubated in a 37° C. incubator for 30 minutes. • f) All cells were transferred to a 96-well deep well plate, and 1 mL of 37° C. pre-warmed 1× lysis/fixation buffer was added thereto. • g) The cells were incubated in the dark at 37° C. for 10 minutes. • h) After centrifugation at 600 g for 5 minutes, the supernatant was discarded, and the cells were washed twice with 1 mL of PBS by centrifugation. • i) 0.4 mL per well of permeabilization buffer was added to the cell pellet and mixed thoroughly. The cells were incubated in the dark at 4° C. for 30 minutes. • j) After centrifugation at 600 g for 5 minutes, the supernatant was discarded, and the cells were washed twice with 1 mL of flow cytometry staining buffer (PBS+0.2% BSA+1 mM EDTA) by centrifugation. • k) Anti-STAT1 antibody was diluted 65-fold in flow cytometry staining buffer, and added to cell-containing wells at 100 μL per well and mixed thoroughly. • l) The cells were incubated at room temperature for 40 minutes. • m) 1 mL per well of flow cytometry staining buffer was added, and the cells were washed twice by centrifugation at 600 g for 5 minutes. • n) The supernatant was discarded, and the cell pellet was resuspended in 300 μL of flow cytometry staining buffer. • o) The samples were loaded for analysis using the Beckman CytoFlex flow cytometer.
Data were analyzed using FlowJo software. Curve fitting was performed and the IC50 was calculated using GraphPad Prism 8 software.

Assay [2] deals with Ba/F3-FL-TYK2-E957D cells (Homo sapiens, UniProt P29597, E957D, cells depend on it). Kind of assay: Proliferation of Ba/F3-FL-TYK2-E957D cells (CellTiter-Glo). It is filed as cell-based, mouse. Conditions: 72 hours, read-out: Half maximal inhibitory concentration IC50 for cells Ba/F3-FL-TYK2-E957D. The source says:
Adenosine triphosphate (ATP) serves as a universal energy carrier in various life processes, representing the smallest unit of energy storage and transfer. The CellTiter-Glo™ Luminescent Cell Viability Assay Kit utilizes luciferase as a detection agent. During the luminescent process, luciferase requires the participation of ATP. By adding CellTiter-Glo™ reagent to the cell culture medium and measuring the luminescence, the light signal was directly proportional to the amount of ATP in the system, and ATP was positively correlated with the number of viable cells. Therefore, cell proliferation can be detected by measuring ATP content using the CellTiter-Glo kit. In this test, the cell lines used were Ba/F3-FL-TYK2-E957D and Ba/F3-TEL-TYK2. Ba/F3-FL-TYK2-E957D cells can stably express the exogenously introduced human TYK2-E957D gene, and the TYK2-E957D gene sequence contains both JH1 and JH2 domains. On the other hand, Ba/F3-TEL-TYK2 cells can stably express the exogenously introduced human TEL-TYK2 gene, and the TEL-TYK2 gene sequence contains only the JH1 domain of TYK2.
The cell lines were cultured in an incubator at 37° C. with 5% CO2. Regular passaging was performed, and cells in the logarithmic growth phase were selected for plating.
• a) The test compounds were prepared into a 10 mM solution with DMSO, and then diluted to 0.3 or 1 mM with DMSO. • b) Preparation of 1000× compound storage plate (tube): The compounds were 3-fold serially diluted from the highest concentration to the lowest concentration, creating 9 different concentrations. • c) Preparation of 20× compound working solution: 49 μL of cell culture medium was added to a flat-bottomed 96-well transparent drug plate. From the 1000× compound storage plate, 1 μL of the compound was pipetted into the cell culture medium in the 96-well transparent drug plate. In the solvent control, 1 μL of DMSO was added. After the compound or DMSO was added, the mixture was homogenized using a multi-channel pipette.
• a) Cells were stained with trypan blue and viable cells were counted to ensure a cell viability of 90% or more. • b) 95 μL of cell suspension (2000 cells/well) was added to each well of the compound assay cell plate, and cell-free culture medium containing 0.1% DMSO was added to the Min control wells. • c) Administration in the compound assay cell plate: 5 μL of 20× compound working solution was added to the cell culture plate. 5 μL of DMSO-cell culture medium mixture was added to the Max control wells. The final concentration of DMSO was 0.1%. • d) The culture plate was then incubated in an incubator at 37° C. with 5% CO2 for 72 hours.
The following steps were conducted in accordance with the instructions of the Promega CellTiter-Glo Luminescent Cell Viability Assay Kit (Promega-G7573). • a) CellTiter-Glo buffer was thawed and brought to room temperature. • b) CellTiter-Glo substrate was also brought to room temperature. • c) CellTiter-Glo buffer was added to a bottle of CellTiter-Glo substrate to dissolve the substrate, thereby preparing CellTiter-Glo working solution. • d) The mixture was slowly vortexed and shaken to be fully dissolved. • e) The cell culture plate was removed and allowed to equilibrate to room temperature for 10 minutes. • f) 50 μL (equal to half the volume of cell culture medium in each well) of CellTiter-Glo working solution was added to each well. • g) The culture plate was shaken on an orbital shaker for 2 minutes to induce cell lysis. • h) The plate was then left at room temperature for 10 minutes to stabilize the luminescent signal. • i) The luminescent signal was detected using a SpectraMax Paradigm plate reader.
Data analysis was conducted using GraphPad Prism 5.0 software. Nonlinear S-curve regression was employed to fit the data and generate dose-response curves. From these curves, the IC50 values were calculated.

Sequence of Ba/F3-FL-TYK2-E957D cells (P29597 whole entry E957D): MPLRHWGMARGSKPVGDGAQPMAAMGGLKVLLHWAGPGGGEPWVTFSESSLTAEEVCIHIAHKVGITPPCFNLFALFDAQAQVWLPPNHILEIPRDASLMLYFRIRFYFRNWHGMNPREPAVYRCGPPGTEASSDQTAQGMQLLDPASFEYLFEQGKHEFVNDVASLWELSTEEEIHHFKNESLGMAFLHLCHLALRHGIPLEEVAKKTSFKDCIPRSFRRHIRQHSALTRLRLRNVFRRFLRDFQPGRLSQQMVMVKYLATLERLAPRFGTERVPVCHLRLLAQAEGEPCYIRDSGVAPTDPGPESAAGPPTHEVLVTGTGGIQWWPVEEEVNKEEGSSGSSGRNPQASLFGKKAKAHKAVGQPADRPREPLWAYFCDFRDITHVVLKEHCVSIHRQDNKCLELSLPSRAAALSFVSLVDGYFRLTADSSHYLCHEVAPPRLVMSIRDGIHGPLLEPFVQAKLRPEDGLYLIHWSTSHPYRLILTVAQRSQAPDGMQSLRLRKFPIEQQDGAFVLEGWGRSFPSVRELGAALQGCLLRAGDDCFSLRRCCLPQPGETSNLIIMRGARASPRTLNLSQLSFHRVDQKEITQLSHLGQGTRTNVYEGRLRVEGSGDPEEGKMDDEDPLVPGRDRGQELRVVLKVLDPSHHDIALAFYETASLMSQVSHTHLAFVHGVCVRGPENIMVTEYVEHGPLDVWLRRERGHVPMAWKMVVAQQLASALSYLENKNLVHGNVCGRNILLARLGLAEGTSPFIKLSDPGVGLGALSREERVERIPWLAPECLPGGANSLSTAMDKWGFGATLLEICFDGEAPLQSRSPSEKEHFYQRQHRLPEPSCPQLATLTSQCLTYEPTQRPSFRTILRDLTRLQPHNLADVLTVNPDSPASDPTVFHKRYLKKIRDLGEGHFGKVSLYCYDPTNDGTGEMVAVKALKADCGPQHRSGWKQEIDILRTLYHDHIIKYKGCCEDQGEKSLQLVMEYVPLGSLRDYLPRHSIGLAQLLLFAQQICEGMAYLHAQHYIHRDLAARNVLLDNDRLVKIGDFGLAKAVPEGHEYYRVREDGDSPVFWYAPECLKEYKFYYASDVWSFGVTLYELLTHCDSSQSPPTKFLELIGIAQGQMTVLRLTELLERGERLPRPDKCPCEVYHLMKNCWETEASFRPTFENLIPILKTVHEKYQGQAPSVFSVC

In general, IC50 refers to the concentration needed to halve the response being measured. Turning to `CNC(=O)c1cnc(NC(=O)C2CC2)cc1Nc1cccc(-c2ccc(S(=O)(=O)C(C)C)cn2)c1OC` [WX-020], the IC50 in assay [1] was 369 nM. As to `CNC(=O)c1nnc(NC(=O)C2CC2)cc1Nc1cccc(-c2ccc(S(=N)(=O)C(C)C)cn2)c1OC` (single isomer, unassigned) [WX-012A], in assay [2], the GI50 worked out at 3.3 nM. Take `CNC(=O)c1nnc(NC(=O)C2CC2)cc1Nc1cccc(-c2ccc(P(=O)(C3CC3)C3CC3)cn2)c1OC` [WX-021]: in assay [2], the GI50 is 2.5 nM. The same compound displayed an IC50 in assay [1] of 452 nM. On the same counts, the results for `CNC(=O)c1nnc(NC(=O)C2CC2)cc1Nc1cccc(-c2ccc(S(=N)(=O)C(C)C)cn2)c1OC` (single isomer, unassigned) [WX-012B] are 2.4 nM and 419 nM. For the compound `CNC(=O)c1cnc(NC(=O)C2CC2)cc1Nc1cccc(-c2ccc(S(=O)(=O)C(C)C)cn2)c1OC.Cl` [Hydrochloride of WX-020], the GI50 in assay [2] is 1.5 nM. Turning to `CNC(=O)c1nnc(NC(=O)C2CC2)cc1Nc1cccc(-c2ncc(S(=N)(=O)C(C)C)cn2)c1OC` (single isomer, unassigned) [WX-011B], the GI50 in assay [2] worked out at 3.3 nM. In addition, the midpoint of inhibition in assay [1], the IC50, lay at 375 nM.

`CNC(=O)c1cnc(NC(=O)C2CC2)cc1Nc1cccc(-c2ncc(S(=O)(=O)C(C)C)cn2)c1OC` [WX-019]: the GI50 in assay [2] worked out at 2 nM. This compound also showed an IC50 in assay [1] of 427 nM. In the case of `CNC(=O)c1nnc(NC(=O)C2CC2)cc1Nc1cccc(-c2ncc(S(=N)(=O)C(C)C)cn2)c1OC` (single isomer, unassigned) [WX-011A], the GI50 in assay [2] is 5.3 nM. In addition, inhibition in assay [1] was half-maximal at 148 nM (IC50).
